The target in the assay is T1, human MRGPRX2 (Homo sapiens, UniProt Q96LB1).
T1 construct: expressed in transfected cells; host or cells: CHO cells, stably transfected (G418 and Hygromycin B selection)
T1 sequence (Q96LB1 1-330): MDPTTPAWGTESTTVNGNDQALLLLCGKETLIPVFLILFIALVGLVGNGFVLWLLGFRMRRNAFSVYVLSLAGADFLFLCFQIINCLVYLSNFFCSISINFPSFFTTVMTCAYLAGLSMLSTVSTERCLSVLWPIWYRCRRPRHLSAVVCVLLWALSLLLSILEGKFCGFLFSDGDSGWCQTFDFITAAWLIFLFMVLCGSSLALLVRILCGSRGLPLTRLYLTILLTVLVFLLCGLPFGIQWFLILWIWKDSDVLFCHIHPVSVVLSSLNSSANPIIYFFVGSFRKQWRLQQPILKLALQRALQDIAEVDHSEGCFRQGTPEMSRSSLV
Kind of assay: MRGPRX2 activity: IP-One Gq HTRF assay in CHO cells, antagonism versus 0.3 uM Cortistatin-14. It is filed as cell-based. The following applies: versus 0.3 uM Cortistatin-14 agonist, CHO cells expressing human MRGPRX2, read-out: MRGPRX2 Antagonist Activity. How it is done: CHO cells stably transfected to express human MRGPRX2 were maintained in an incubator at 37° C. with 5% CO2 and grown in F12 (HAM) media with 10% fetal bovine serum (FBS), 1% Glutamax, 1% penicillin/streptomycin, 800 μg/mL Geneticin (G418), and 300 μg/mL Hygromycin B.
Cells were plated in a 384-well assay plate at 20,000 cells per well in 12 μL of Opti-MEM and kept in an incubator overnight. On the day of the assay, compounds solubilized at 10 mM in DMSO were added as a 10-point curve (30 uM final top concentration with 1:3 serial dilutions) using a Tecan D300E digital dispenser. Agonists were diluted in assay buffer (final concentrations of 5.7 mM Tris-HCl, 43 mM NaCl, 50 mM LiCl, pH=8) and 2 μL of the agonist Cortistatin-14 (CPC Scientific, catalog CORT-002) are added to each well. Final concentrations of agonists were 0.3 μM Cortistatin. Final concentrations of DMSO were kept consistent across the plate. Plates were incubated in the dark for 1 h at 37° C. and then for 1 h at room temperature. IP-1 standards and HTRF detection reagents were added according to the IP-One—Gq Kit purchased from Cisbio (part number 62IPAPEJ) and incubated in the dark for 1 h at room temperature. The plate was read on a Molecular Devices SpectraMax iD5 plate reader. The HTRF ratio was calculated from the raw data and graphed using GraphPad Prism to calculate an IC50 value for each compound.
The activity ranges are denoted as follows: “+++++” denotes antagonist activity <100 nM; “++++” denotes antagonist activity between 100 and 500 nM; “+++” denotes activity between 501 and 1000 nM; “++” denotes activity between 1001 and 2500 nM; and “+” denotes activity >2500 nM.
A general note: Time-resolved FRET reads energy transfer from a long-lived donor to a nearby acceptor.

Take `O=S1(=O)N=C(NCc2ncccc2C(F)(F)F)Nc2c1ccc(F)c2Oc1ccccc1Cl` [Compound 1-26, 5-(2-chlorophenoxy)-6-fluoro-3-(((3-(trifluoromethyl)pyridin-2-yl)methyl)amino)-4H-benzo[e][1,2,4]thiadiazine 1,1-dioxide]: the IC50 is 1000 to 2500 nM.

Regarding `Cc1ccccc1Cc1cccc2c1NC(NCc1ccccc1F)=NS2(=O)=O` [Compound 6-7, 3-((2-fluorobenzyl)amino)-5-(2-methylbenzyl)-4H-benzo[e][1,2,4]thiadiazine 1,1-dioxide], the IC50 is less than 100 nM.

In the case of `Cc1cc(F)c(Oc2ccccc2Cl)c2c1S(=O)(=O)N=C(NCc1ncccc1F)N2` [Compound 1-45, 5-(2-chlorophenoxy)-6-fluoro-3-(((3-fluoropyridin-2-yl)methyl)amino)-8-methyl-4H-benzo[e][1,2,4]thiadiazine 1,1-dioxide], the IC50 was 100 to 500 nM.

As to `O=S1(=O)N=C(NCc2ccc(Cl)c(Cl)c2)Nc2c(Cc3ccccc3Cl)cccc21` [Compound 12-12, 5-(2-chlorobenzyl)-3-((3,4-dichlorobenzyl)amino)-4H-benzo[e][1,2,4]thiadiazine 1,1-dioxide], the IC50 was less than 100 nM.

In the case of `COc1cccc(Cc2cccc3c2NC(NCc2ccccc2F)=NS3(=O)=O)c1` [Compound 6-9, 3-((2-fluorobenzyl)amino)-5-(3-methoxybenzyl)-4H-benzo[e][1,2,4]thiadiazine 1,1-dioxide], the IC50 is less than 100 nM.

For the molecule `O=S1(=O)N=C(NCc2ncccc2F)Nc2c1ccc(F)c2CCc1ccccc1` [Compound 6-1, 6-fluoro-3-(((3-fluoropyridin-2-yl)methyl)amino)-5-phenethyl-4H-benzo[e][1,2,4]thiadiazine 1,1-dioxide], the IC50 is 100 to 500 nM.

Turning to `Cc1c(F)cccc1CNC1=NS(=O)(=O)c2ccc(F)c(Oc3ccccc3Cl)c2N1` [Compound 1-24, 5-(2-chlorophenoxy)-6-fluoro-3-((3-fluoro-2-methylbenzyl)amino)-4H-benzo[e][1,2,4]thiadiazine 1,1-dioxide], the IC50 is less than 100 nM.

With `CC(c1ccc(F)cc1)c1c(F)ccc2c1NC(NCc1ncccc1F)=NS2(=O)=O` (stereo not drawn) [Compound 8-2, 6-fluoro-5-(1-(4-fluorophenyl)ethyl)-3-(((3-fluoropyridin-2-yl)methyl)amino)-4H-benzo[e][1,2,4]thiadiazine 1,1-dioxide], the IC50 was less than 100 nM.

Regarding `CC(c1ccccc1)c1c(F)ccc2c1NC(NCc1cccc(F)c1)=NS2(=O)=O` (stereo not drawn) [Compound 22-1, 6-fluoro-3-((3-fluorobenzyl)amino)-5-(1-phenylethyl)-4H-benzo[e][1,2,4]thiadiazine 1,1-dioxide], the IC50 is less than 100 nM.

As to `CC(C)CC(C)c1c(F)ccc2c1NC(NCc1cccc(F)c1)=NS2(=O)=O` (stereo not drawn) [Compound 22-4, 6-fluoro-3-((3-fluorobenzyl)amino)-5-(4-methylpentan-2-yl)-4H-benzo[e][1,2,4]thiadiazine 1,1-dioxide], the IC50 was less than 100 nM.

Consider `Cc1ccc(Cc2cccc3c2NC(NCc2ccccc2F)=NS3(=O)=O)cc1` [Compound 6-16, 3-((2-fluorobenzyl)amino)-5-(4-methylbenzyl)-4H-benzo[e][1,2,4]thiadiazine 1,1-dioxide], for which the IC50 fell in the range of 100 to 500 nM.

Turning to `C=C(c1ccccc1F)c1cccc2c1NC(NCc1ncccc1Cl)=NS2(=O)=O` [Compound 13-1, 3-(((3-chloropyridin-2-yl)methyl)amino)-5-(1-(2-fluorophenyl)vinyl)-4H-benzo[e][1,2,4]thiadiazine 1,1-dioxide], the IC50 is less than 100 nM.

As for `N#Cc1ccc(Oc2c(F)ccc3c2NC(NCc2ncccc2F)=NS3(=O)=O)cc1` [Compound 2-12, 4-((6-fluoro-3-(((3-fluoropyridin-2-yl)methyl)amino)-1,1-dioxido-4H-benzo[e][1,2,4]thiadiazin-5-yl)oxy)benzonitrile], the IC50 is 1000 to 2500 nM.

As for `CC(c1ccc(Oc2ccccc2)cc1)c1c(F)ccc2c1NC(NCc1cccc(F)c1)=NS2(=O)=O` (stereo not drawn) [Compound 22-15, 6-fluoro-3-((3-fluorobenzyl)amino)-5-(1-(4-phenoxyphenyl)ethyl)-4H-benzo[e][1,2,4]thiadiazine 1,1-dioxide], the IC50 lay in the range of 501 to 1000 nM.

Regarding `O=S1(=O)N=C(NCc2ncccc2F)Nc2c1ccc(F)c2Oc1cccc(Cl)c1` [Compound 2-10, 5-(3-chlorophenoxy)-6-fluoro-3-(((3-fluoropyridin-2-yl)methyl)amino)-4H-benzo[e][1,2,4]thiadiazine 1,1-dioxide], the IC50 was in the range of 100 to 500 nM.

Regarding `O=S1(=O)N=C(Nc2ccc(F)cc2)Nc2c1cc(F)c(F)c2Cc1ccccc1Cl` [Compound 4-19, 5-(2-chlorobenzyl)-6,7-difluoro-3-((4-fluorophenyl)amino)-4H-benzo[e][1,2,4]thiadiazine 1,1-dioxide], the IC50 lay within 501 to 1000 nM.

As to `CC(C)(C)c1cccc(Cl)c1Oc1c(F)ccc2c1NC(NCc1ncccc1F)=NS2(=O)=O` [Compound 1-36, 5-(2-(tert-butyl)-6-chlorophenoxy)-6-fluoro-3-(((3-fluoropyridin-2-yl)methyl)amino)-4H-benzo[e][1,2,4]thiadiazine 1,1-dioxide], the IC50 is less than 100 nM.

For `Cc1c(F)cccc1CNC1=NS(=O)(=O)c2ccc(F)c(C(C)c3cccc(Cl)c3Cl)c2N1` (stereo not drawn) [Compound 8-3, 5-(1-(2,3-dichlorophenyl)ethyl)-6-fluoro-3-((3-fluoro-2-methylbenzyl)amino)-4H-benzo[e][1,2,4]thiadiazine 1,1-dioxide], the IC50 was less than 100 nM.

Regarding `COc1ccccc1CNC1=NS(=O)(=O)c2cc(F)c(F)c(Cc3ccccc3Cl)c2N1` [Compound 4-9, 5-(2-chlorobenzyl)-6,7-difluoro-3-((2-methoxybenzyl)amino)-4H-benzo[e][1,2,4]thiadiazine 1,1-dioxide], the IC50 fell in the range of 501 to 1000 nM.

For the molecule `O=S1(=O)N=C(NCc2ncccc2F)Nc2c1cc(F)c(F)c2Oc1ccccc1Cl` [Compound 1-5, 5-(2-chlorophenoxy)-6,7-difluoro-3-(((3-fluoropyridin-2-yl)methyl)amino)-4H-benzo[e][1,2,4]thiadiazine 1,1-dioxide], the IC50 was less than 100 nM.

With `O=S1(=O)N=C(NCc2ncccc2F)Nc2c1ccc(F)c2Oc1cccc(Cl)c1Cl` [Compound 1-10, 5-(2,3-dichlorophenoxy)-6-fluoro-3-(((3-fluoropyridin-2-yl)methyl)amino)-4H-benzo[e][1,2,4]thiadiazine 1,1-dioxide], the IC50 was less than 100 nM.

`O=S1(=O)N=C(NCc2ccccc2)Nc2c1ccc(F)c2Oc1ccccc1Cl` [Compound 1-49, 3-(benzylamino)-5-(2-chlorophenoxy)-6-fluoro-4H-benzo[e][1,2,4]thiadiazine 1,1-dioxide]: the IC50 is less than 100 nM.

Regarding `O=S1(=O)N=C(NCc2ccccc2F)Nc2c(Cc3c(Cl)cccc3Cl)cccc21` [Compound 6-5, 5-(2,6-dichlorobenzyl)-3-((2-fluorobenzyl)amino)-4H-benzo[e][1,2,4]thiadiazine 1,1-dioxide], the IC50 is less than 100 nM.

As for `O=S1(=O)N=C(NCc2cnccc2C(F)(F)F)Nc2c1cc(F)c(F)c2Cc1ccccc1Cl` [Compound 4-17, 5-(2-chlorobenzyl)-6,7-difluoro-3-(((4-(trifluoromethyl)pyridin-3-yl)methyl)amino)-4H-benzo[e][1,2,4]thiadiazine 1,1-dioxide], the IC50 was 100 to 500 nM.

The values are drawn from patent US20250170141A1, “MRGPRX2 MODULATORS AND RELATED METHODS OF TREATMENT” (Escient Pharmaceuticals, Inc., priority 2023, published 2025).
